Laboratory results published in patent publication US20230277632A1, “MODIFIED PlySs2 LYSINS AND ANTIBIOTIC COMBINATIONS FOR USE AGAINST GRAM-POSITIVE BACTERIA” (ContraFect Corporation, priority 2020, published 2023).
Values after ≈ are worked out from the molar mass of the structure shown. Values joined by “and” are separate entries in the source; they are usually repeats but may differ in a detail not shown here. Equal values may be shown once.

Tests used:
[1] = test system: S. aureus isolates; test: In vivo efficacy of vancomycin in combination with pp296, neutropenic murine thigh infection model; conditions: 24 h; for Replicate Log10 CFU/thigh data: listed as VAN
Description: (§1) Study animals: Specific pathogen-free female ICR mice (average body weight 23 grams) were provided food and water ad libitum and maintained and used in accordance with National Research Council recommendations. Animals were allowed a 48-hour post-delivery acclimation period before every experiment. Mice were rendered transiently neutropenic by injection of cyclophosphamide via intraperitoneal (IP) route at a dose of 150 mg/kg of body weight at four days before bacterial inoculation and 100 mg/kg of body weight at one day before bacterial inoculation.
(§2) Neutropenic Thigh Infection Model: Two transfers of the bacterial isolates were performed onto trypticase soy agar plates with 5% sheep blood and placed into an incubator at 37° C. for approximately 24 hours. After an 18-24 hour incubation of the second transfer, a suspension of approximately 10^7 CFU/mL was made for inoculation. Final bacterial inoculum concentrations were confirmed by serial dilution and plating techniques. Thigh infection with the test isolate was produced by intramuscular injection of 0.1 mL of the bacterial inoculum into each thigh of the mice. Antimicrobial therapy was initiated 2 hours after bacterial inoculation, as detailed below. […]
Untreated control mice (n=3) were sacrificed just prior to antibiotic administration and 24 hours after bacterial inoculation. Animals sacrificed prior to antibiotic initiation served as 0-hour control animals, representing initial bacterial burden. […] Treatment mice (n=3/group) were sacrificed at the end of the 24 hour treatment period. After sacrifice, both thighs for each mouse were homogenized in normal saline. Serial dilutions were plated on Trypticase soy agar with 5% sheep blood and incubated for 18 to 20 hours at 37.0 to determine the CFU. Efficacy was calculated as the change in bacterial density obtained in treated mice after 24 hours compared with the numbers in the 0-hour control animals. Bacterial density represents the average CFU determined from 3 mice, each contributing 2 thighs.

[2] = test system: S. aureus isolates; test: MIC determination (broth microdilution) against 8 S. aureus isolates; format: cell-based; conditions: CAMHB, unit assumed
Description: Suitable methods for assessing the activity of a modified lysin polypeptide as disclosed herein are well known in the art and described in the examples. […] For example, MIC values for a modified lysin polypeptide may be determined against e.g., laboratory Staphylococcus aureus strains, in e.g., Mueller-Hinton broth or Mueller-Hinton broth supplemented with serum, such as horse serum.
The pp296 MICs were determined based on (1) cation-adjusted Mueller-Hinton Broth with 25% horse serum and 0.5 mM DTT (caMHB-HSD); (2) human serum (100% serum); and (3) ICR mice (100% serum). Vancomycin and daptomycin MICs of the isolate strains were determined in accordance with the broth microdilution method as outlined by CLSI. Results of the MIC determination are shown below in Table 2. The bacterial isolates were frozen at −80° C. in skim milk.

[3] = test system: S. aureus; test: pp296 dose fractionation study, neutropenic murine thigh infection model; format: in vivo; conditions: vancomycin 3 mg/kg Q12h SC alone, 24 h
Description: Each of the pp296 TDDs was fractionated into three regimens, i.e., one-third of the entire dose was administered via IV three times (q8h); one-half of the entire does was administered via IV two times (q12h), or the entire dose was administered via IV once daily over a 24-hour period, for a total of three groups per each TDD.
Untreated control mice (n=3/group) were sacrificed just prior to antibiotic administration, as well as 24 hours later. Animals sacrificed prior to antibiotic administration served as 0-hour control animals, representing initial bacterial burden. The 24-hour control animals received sterile normal saline in the same volume and schedule as the most frequent active drug regimen. […] After the 24-hour treatment period, all animals were euthanized and thighs were cultured quantitatively as described above. The change in bacterial density was calculated for each of the dosing regimen. Comparisons were made between the different regimens of the same total daily dose on bacterial burdens at 24 hours using one-way Analysis of Variance (ANOVA) test followed by Tukey's test where the P value was 0.05.

[4] = test system: S. aureus isolates; test: Vancomycin dose-ranging, neutropenic murine thigh infection model; format: in vivo; conditions: 24 h
Description: as §1
as §2, with “mice.” for “mice. Antimicrobial therapy was initiated 2 hours after bacterial inoculation, as detailed below.”
Two hours post-bacterial inoculation, one group of mice (n=3) was sacrificed to serve as a 0 hour control, representing initial bacterial burden in the thigh, wherein bacterial burden is determined as the average CFU from 6 thighs, i.e., 2 thighs per mouse. […]

Structure (SMILES): CN[C@H](CC(C)C)C(=O)N[C@H]1C(=O)N[C@@H](CC(N)=O)C(=O)N[C@H]2C(=O)N[C@H]3C(=O)N[C@H](C(=O)N[C@H](C(=O)O)c4cc(O)cc(O)c4-c4cc3ccc4O)[C@H](O)c3ccc(c(Cl)c3)Oc3cc2cc(c3O[C@@H]2O[C@H](CO)[C@@H](O)[C@H](O)[C@H]2O[C@H]2C[C@](C)(N)[C@H](O)[C@H](C)O2)Oc2ccc(cc2Cl)[C@H]1O [Vancomycin, vancomycin]
- Replicate Log10 CFU/thigh data ([1]; ATCC2921, VAN 3 mg/kg alone): 4.59 Log10 CFU/thigh and 4.96 Log10 CFU/thigh and 7.87 Log10 CFU/thigh and 5.18 Log10 CFU/thigh and 7.18 Log10 CFU/thigh and 6.03 Log10 CFU/thigh
- Replicate Log10 CFU/thigh data ([1]; CAIRD426, VAN 1.5 mg/kg alone): 6.89 Log10 CFU/thigh and 6.51 Log10 CFU/thigh and 7.97 Log10 CFU/thigh and 8.04 Log10 CFU/thigh
- Replicate Log10 CFU/thigh data ([1]; CAIRD426, VAN 3 mg/kg alone, Run #1): 4.81 Log10 CFU/thigh and 7.53 Log10 CFU/thigh and 6.53 Log10 CFU/thigh
- Replicate Log10 CFU/thigh data ([1]; CAIRD426, VAN 3 mg/kg alone, Run #2): 7.82 Log10 CFU/thigh and 8.21 Log10 CFU/thigh and 7.74 Log10 CFU/thigh and 7.40 Log10 CFU/thigh and 7.47 Log10 CFU/thigh and 7.20 Log10 CFU/thigh
- Replicate Log10 CFU/thigh data ([1]; HPV107, VAN 1.5 mg/kg alone): 8.44 Log10 CFU/thigh and 8.20 Log10 CFU/thigh and 8.00 Log10 CFU/thigh and 7.87 Log10 CFU/thigh and 8.32 Log10 CFU/thigh
- Replicate Log10 CFU/thigh data ([1]; HPV107, VAN 3 mg/kg alone, Run #1): 7.50 Log10 CFU/thigh and 7.81 Log10 CFU/thigh and 7.24 Log10 CFU/thigh and 7.40 Log10 CFU/thigh and 7.36 Log10 CFU/thigh and 6.51 Log10 CFU/thigh
- Replicate Log10 CFU/thigh data ([1]; HPV107, VAN 3 mg/kg alone, Run #2): 7.49 Log10 CFU/thigh and 7.73 Log10 CFU/thigh and 5.45 Log10 CFU/thigh
- Replicate Log10 CFU/thigh data ([1]; JMI227, VAN 3 mg/kg alone): 7.50 Log10 CFU/thigh and 6.17 Log10 CFU/thigh and 8.04 Log10 CFU/thigh and 8.21 Log10 CFU/thigh and 8.47 Log10 CFU/thigh and 7.51 Log10 CFU/thigh
- Replicate Log10 CFU/thigh data ([1]; JMI4789, VAN 3 mg/kg alone): 8.41 Log10 CFU/thigh and 8.01 Log10 CFU/thigh and 6.93 Log10 CFU/thigh (2×) and 4.92 Log10 CFU/thigh
- Replicate Log10 CFU/thigh data ([1]; NRS100, VAN 1.5 mg/kg alone): 6.30 Log10 CFU/thigh and 4.89 Log10 CFU/thigh and 4.85 Log10 CFU/thigh and 4.30 Log10 CFU/thigh and 4.69 Log10 CFU/thigh and 6.73 Log10 CFU/thigh
- Replicate Log10 CFU/thigh data ([1]; NRS100, VAN 3 mg/kg alone, Run #1): 4.58 Log10 CFU/thigh (2×) and 4.90 Log10 CFU/thigh and 4.89 Log10 CFU/thigh and 4.48 Log10 CFU/thigh and 4.56 Log10 CFU/thigh
- Replicate Log10 CFU/thigh data ([1]; NRS100, VAN 3 mg/kg alone, Run #2): 4.75 Log10 CFU/thigh and 6.89 Log10 CFU/thigh and 4.70 Log10 CFU/thigh and 4.58 Log10 CFU/thigh and 4.83 Log10 CFU/thigh and 6.46 Log10 CFU/thigh
- Replicate Log10 CFU/thigh data ([1]; NRS123, VAN 3 mg/kg alone): 7.17 Log10 CFU/thigh and 7.02 Log10 CFU/thigh and 7.77 Log10 CFU/thigh and 8.38 Log10 CFU/thigh and 8.32 Log10 CFU/thigh and 8.01 Log10 CFU/thigh
- Replicate Log10 CFU/thigh data ([1]; NRS217, VAN 1.5 mg/kg alone): 7.60 Log10 CFU/thigh and 8.28 Log10 CFU/thigh and 8.26 Log10 CFU/thigh and 7.90 Log10 CFU/thigh and 6.43 Log10 CFU/thigh and 7.61 Log10 CFU/thigh
- Replicate Log10 CFU/thigh data ([1]; NRS217, VAN 3 mg/kg alone, Run #1): 6.66 Log10 CFU/thigh and 6.70 Log10 CFU/thigh and 7.23 Log10 CFU/thigh and 6.68 Log10 CFU/thigh and 7.60 Log10 CFU/thigh and 6.55 Log10 CFU/thigh
- Replicate Log10 CFU/thigh data ([1]; NRS217, VAN 3 mg/kg alone, Run #2): 7.06 Log10 CFU/thigh and 7.38 Log10 CFU/thigh and 5.26 Log10 CFU/thigh and 4.73 Log10 CFU/thigh and 6.82 Log10 CFU/thigh
- Replicate Log10 CFU/thigh data ([1]; isolate HPV107, VAN 5 mg/kg q12h SC alone): 4.73 Log10 CFU/thigh and 8.28 Log10 CFU/thigh and 4.75 Log10 CFU/thigh and 4.88 Log10 CFU/thigh
- Replicate Log10 CFU/thigh data ([1]; isolate NRS100, VAN 5 mg/kg q12h SC alone): 4.68 Log10 CFU/thigh (2×) and 4.78 Log10 CFU/thigh (2×) and 4.56 Log10 CFU/thigh and 4.73 Log10 CFU/thigh
- Replicate Log10 CFU/thigh data ([1]; isolate NRS217, VAN 5 mg/kg q12h SC alone): 4.64 Log10 CFU/thigh and 6.13 Log10 CFU/thigh and 4.76 Log10 CFU/thigh and 4.56 Log10 CFU/thigh and 4.75 Log10 CFU/thigh
- average bacterial growth vs starting inoculum ([1]; vancomycin 1.5 mg/kg Q12h SC alone, 4 isolates): 2.75±0.52 log10 CFU/thigh
- average bacterial reduction vs starting inoculum ([1]; vancomycin 5 mg/kg q12h SC alone, 4 isolates): −0.38±1.10 log10 CFU/thigh
- MIC Vancomycin (CAMHB) ([2]; ATCC 29213 MSSA): 1 µg/mL (≈ 0.69 µM)
- MIC Vancomycin (CAMHB) ([2]; CAIRD426 MRSA): 1 µg/mL (≈ 0.69 µM)
- MIC Vancomycin (CAMHB) ([2]; HPV107 MRSA): 1 µg/mL (≈ 0.69 µM)
- MIC Vancomycin (CAMHB) ([2]; JMI227 MRSA): 1 µg/mL (≈ 0.69 µM)
- MIC Vancomycin (CAMHB) ([2]; JMI4789 MRSA): 1 µg/mL (≈ 0.69 µM)
- MIC Vancomycin (CAMHB) ([2]; NRS100 (COL) MRSA): 1 µg/mL (≈ 0.69 µM)
- MIC Vancomycin (CAMHB) ([2]; NRS123 (MW2) MRSA): 1 µg/mL (≈ 0.69 µM)
- MIC Vancomycin (CAMHB) ([2]; NRS271 MRSA/LRSA): 1 µg/mL (≈ 0.69 µM)
- bacterial burden vs 0-hour control mice [3]: 0.41±0.62 log10 CFU/thigh
- bacterial burden reduction vs 0-hour controls ([4]; upper end of dose-response, vancomycin 3.125-25 mg/kg q12h SC, all isolates): −1.15±0.40 log10 CFU/thigh
- mean bacterial burden change vs 0-hour controls ([4]; vancomycin 3.125 mg/kg q12h SC, mean of 8 isolates): −0.05±1.16 log10 CFU/thigh
